Usually IC50 stands for the concentration that inhibits the measured activity by half.

The record followed here is patent publication US20240300980A1, “HETEROCYCLIC COMPOUNDS AS KRAS INHIBITOR, AND PREPARATION THEREFOR AND USE THEREOF IN TREATMENT” (SHANGHAI KECHOW PHARMA, INC., priority 2021, published 2024).

This experiment has as its system AGS cells (KRAS^G12D). Description: Detection of cell proliferation in vitro by MTT/MTS method (cell activity experiment). Format: cell-based. Conditions: Homo sapiens, AGS, 72 h, AGS cells; MTT/MTS; 3 days of drug treatment; read-out: AGS IC50. In short, it runs like this:
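After 3-day compound exposure (final DMSO 0.5%), viability of AGS (KRAS G12D) cells, plated 1000/well one day before dosing, was measured at 490 nm following 4 h MTT or MTS incubation. IC50 was fitted from dose–effect curves relative to DMSO-treated wells.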
Background: Formazan colour is commonly taken as a measure of viable cells.
As to `Oc1cc2c(c(-c3ccc4c(N5C[C@H]6CC[C@@H](C5)N6)nc(OC[C@@]56CCCN5C[C@H](F)C6)nc4c3F)c1)C=CCC2` [Example 305, 4-(4-((1R,5S)-3,8-diazabicyclo[3.2.1]octan-3-yl)-8-fluoro-2-(((2R,7aS)-2-fluorotetrahydro-1H-pyrrolizin-7a(5H)-yl)methoxy)quinazolin-7-yl)-7,8-dihydronaphthalen-2-ol], the IC50 was 102 nM.

Regarding `Oc1cc(-c2ccc3c(N4C[C@H]5CC[C@@H](C4)N5)nc(OC[C@@]45CCCN4C[C@H](F)C5)nc3n2)c2c(F)c(F)ccc2c1` [Example 142, 4-(4-((1R,5S)-3,8-diazabicyclo[3.2.1]octan-3-yl)-2-(((2R,7aS)-2-fluorotetrahydro-1H-pyrrolizin-7a(5H)-yl)methoxy)pyrido[2,3-d]pyrimidin-7-yl)-5,6-difluoronaphthalen-2-ol], the IC50 was over 2500 nM.

As to `C#Cc1c(F)ccc2cc(O)cc(-c3ccc4c(N5CC6CCC5CN6)nc(OC[C@@]56CCCN5C[C@H](F)C6)nc4c3F)c12` (stereo partly drawn) [Example 108, 4-(4-(2,5-diazabicyclo [2.2.2]octan-2-yl)-8-fluoro-2-(((2R,7aS)-2-fluorotetrahydro-1H-pyrrolizin-7a(5H)-yl)methoxy)quinazolin-7-yl)-5-ethynyl-6-fluoronaphthalen-2-ol], the IC50 was found to be 40.5 nM.

As for `Oc1cc(-c2ncc3c(N4C[C@H]5CC[C@@H](C4)N5)c(C(F)(F)F)c(OC[C@@]45CCCN4C[C@H](F)C5)nc3c2F)c2c(F)c(F)ccc2c1` [Example 198, 4-(4-((1R,5S)-3,8-diazabicyclo[3.2.1]octan-3-yl)-8-fluoro-2-(((2R,7aS)-2-fluorotetrahydro-1H-pyrrolizin-7a(5H)-yl)methoxy)-3-(trifluoromethyl)-1,6-naphthyridin-7-yl)-5,6-difluoronaphthalen-2-ol], the IC50 is over 2500 nM.

Consider `CC1CCCc2cc(O)cc(-c3cc4nc(OC[C@@]56CCCN5C[C@H](F)C6)nc(N5C[C@H]6CC[C@@H](C5)N6)c4c4occc34)c21` (stereo partly drawn) [Example 387, 4-(9-((1R,5S)-3,8-diazabicyclo[3.2.1]octan-3-yl)-7-(((2R,7aS)-2-fluorotetrahydro-1H-pyrrolizin-7a(5H)-yl)methoxy)furo[2,3-f]quinazolin-4-yl)-5-methyl-5,6,7,8-tetrahydronaphthalen-2-ol], for which the IC50 came to 481 nM.

As for `C#Cc1c(F)ccc2cc(O)cc(-c3c4c(c5c(N6C[C@H]7CC[C@@H](C6)N7)nc(OC[C@@]67CCCN6C[C@H](F)C7)nc5c3F)CCC4)c12` [Example 379, 4-(1-((1R,5S)-3,8-diazabicyclo[3.2.1]octan-3-yl)-5-fluoro-3-(((2R,7aS)-2-fluorotetrahydro-1H-pyrrolizin-7a(5H)-yl)methoxy)-8,9-dihydro-7H-cyclopenta[f]quinazolin-6-yl)-5-ethynyl-6-fluoronaphthalen-2-ol], the IC50 came out at 90 nM.

As for `Oc1ccc2ccccc2c1C#Cc1ccc2c(N3C[C@H]4CC[C@@H](C3)N4)nc(OC[C@@]34CCCN3C[C@H](F)C4)nc2c1F` [Example 365, 1-((4-((1R,5S)-3,8-diazabicyclo[3.2.1]octan-3-yl)-8-fluoro-2-(((2R,7aS)-2-fluorotetrahydro-1H-pyrrolizin-7a(5H)-yl)methoxy)quinazolin-7-yl)ethynyl)naphthalen-2-ol], the IC50 amounted to 3640 nM.

Regarding `Oc1cc(-c2c3c(c4c(N5C[C@H]6CC[C@@H](C5)N6)nc(OC[C@@]56CCCN5C[C@H](F)C6)nc4c2F)OCO3)c2ccccc2c1` [Example 389, 4-(9-((1R,5S)-3,8-diazabicyclo[3.2.1]octan-3-yl)-5-fluoro-7-(((2R,7aS)-2-fluorotetrahydro-1H-pyrrolizin-7a(5H)-yl)methoxy)-[1,3]dioxolo[4,5-f]quinazolin-4-yl)naphthalen-2-ol], the IC50 was determined as 180 nM.

Regarding `Oc1cc2c(c(-c3ncc4c(N5C[C@H]6CC[C@@H](C5)N6)nc(OC[C@@]56CCCN5C[C@H](F)C6)nc4c3F)c1)CCCC2` [Example 271, 4-(4-((1R,5S)-3,8-diazabicyclo[3.2.1]octan-3-yl)-8-fluoro-2-(((2R,7aS)-2-fluorotetrahydro-1H-pyrrolizin-7a(5H)-yl)methoxy)pyrido[4,3-d]pyrimidin-7-yl)-5,6,7,8-tetrahydronaphthalen-2-ol], the IC50 came out at 11 nM.

Regarding `C#Cc1cccc2cc(O)cc(-c3ccc4c(N5C[C@H]6CC[C@@H](C5)C6(F)F)nc(OC[C@@]56CCCN5C[C@H](F)C6)nc4c3F)c12` [Example 121, 4-(4-((1R,5S)-8,8-difluoro-3-azabicyclo [3.2.1]octan-3-yl)-8-fluoro-2-(((2R,7aS)-2-fluorotetrahydro-1H-pyrrolizin-7a(5H)-yl)methoxy)quinazolin-7-yl)-5-ethynylnaphthalen-2-ol], the IC50 is over 2500 nM.

In the case of `CCC1CCc2cc(O)cc(-c3ccc4c(N5C[C@H]6CC[C@@H](C5)N6)nc(OC[C@@]56CCCN5C[C@H](F)C6)nc4c3F)c21` (stereo partly drawn) [Example 283, 7-(4-((1R,5S)-3,8-diazabicyclo[3.2.1]octan-3-yl)-8-fluoro-2-(((2R,7aS)-2-fluorotetrahydro-1H-pyrrolizin-7a(5H)-yl)methoxy)quinazolin-7-yl)-1-ethyl-2,3-dihydro-1H-inden-5-ol], the half-inhibitory concentration (IC50) was found to be 14 nM.

Turning to `Oc1cc(N2CCc3c(nc(OC[C@@]45CCCN4C[C@H](F)C5)nc3N3C[C@H]4CC[C@@H](C3)N4)C2)c2c(Cl)c(F)ccc2c1` [Example 208, 4-(4-((1R,5S)-3,8-diazabicyclo[3.2.1]octan-3-yl)-2-(((2R,7aS)-2-fluorotetrahydro-1H-pyrrolizin-7a(5H)-yl)methoxy)-5,8-dihydropyrido[3,4-d]pyrimidin-7(6H)-yl)-5-chloro-6-fluoronaphthalen-2-ol], the half-maximal inhibitory concentration (IC50) came out at 20 nM.

Take `CC1CCc2cc(O)cc(-c3cc4nc(OC[C@@]56CCCN5C[C@H](F)C6)nc(N5C[C@H]6CC[C@@H](C5)N6)c4c4occc34)c21` (stereo partly drawn) [Example 385, 7-(9-((1R,5S)-3,8-diazabicyclo[3.2.1]octan-3-yl)-7-(((2R,7aS)-2-fluorotetrahydro-1H-pyrrolizin-7a(5H)-yl)methoxy)furo[2,3-f]quinazolin-4-yl)-1-methyl-2,3-dihydro-1H-inden-5-ol]: the IC50 stood at 459 nM.

Take `C#Cc1cccc2cc(O)cc(-c3ccc4c(N5C[C@H]6CC[C@@H](C5)N6)nc(OC[C@@]56CCCN5C[C@H](F)C6)nc4c3)c12` [Example 152, 4-(4-((1R,5S)-3,8-diazabicyclo[3.2.1]octan-3-yl)-2-(((2R, 7aS)-2-fluorotetrahydro-1H-pyrrolizin-7a(5H)-yl)methoxy)quinazolin-7-yl)-5-ethynylnaphthalen-2-ol]: the IC50 came to 318 nM.

Turning to `CC1CCc2cc(O)cc(-c3c(Cl)cc4c(N5C[C@H]6CC[C@@H](C5)N6)nc(OC[C@@]56CCCN5C[C@H](F)C6)nc4c3F)c21` (stereo partly drawn) [Example 304, 7-(4-((1R,5S)-3,8-diazabicyclo[3.2.1]octan-3-yl)-6-chloro-8-fluoro-2-(((2R,7aS)-2-fluorotetrahydro-1H-pyrrolizin-7a(5H)-yl)methoxy)quinazolin-7-yl)-1-methyl-2,3-dihydro-1H-inden-5-ol], the IC50 worked out at 35 nM.

For the compound `CCC1CCc2cc(O)cc(-c3c4c(c5c(N6C[C@H]7CC[C@@H](C6)N7)nc(OC[C@@]67CCCN6C[C@H](F)C7)nc5c3F)CCC4)c21` (stereo partly drawn) [Example 381, 7-(1-((1R,5S)-3,8-diazabicyclo[3.2.1]octan-3-yl)-5-fluoro-3-(((2R,7aS)-2-fluorotetrahydro-1H-pyrrolizin-7a(5H)-yl)methoxy)-8,9-dihydro-7H-cyclopenta[f]quinazolin-6-yl)-1-ethyl-2,3-dihydro-1H-inden-5-ol], the IC50 was 75 nM.

As to `Oc1cc(-c2ccc3c(N4C[C@H]5CC[C@@H](C4)N5)nc(OC[C@@]45CCCN4C[C@H](F)C5)nc3c2F)c2c(c1)C1CC1C2` (stereo partly drawn) [Example 294, 5-(4-((1R,5S)-3,8-diazabicyclo[3.2.1]octan-3-yl)-8-fluoro-2-(((2R,7aS)-2-fluorotetrahydro-1H-pyrrolizin-7a(5H)-yl)methoxy)quinazolin-7-yl)-1,1a,6,6a-tetrahydrocyclopropa[a]inden-3-ol], the IC50 was 65 nM.

On to `C#Cc1cccc2cc(O)cc(-c3ncc4c(N5C[C@H]6CC[C@@H](C5)N6)nc(OCC5(CN6CCCC6)CC5)nc4c3F)c12` [Example 1, 4-(4-((1R,5S)-3,8-diazabicyclo[3.2.1]octan-3-yl)-8-fluoro-2-((1-(pyrrolidin-1-ylmethyl)cyclopropyl)methoxy)pyrido[4,3-d]pyrimidin-7-yl)-5-ethynyl naphthalen-2-ol], for which the IC50 was 8.1 nM.

Regarding `CC1Cc2cc(O)cc(-c3ncc4c(N5C[C@H]6CC[C@@H](C5)N6)nc(OC[C@@]56CCCN5C[C@H](F)C6)nc4c3F)c2C1` (stereo partly drawn) [Example 266, 7-(4-((1R,5S)-3,8-diazabicyclo[3.2.1]octan-3-yl)-8-fluoro-2-(((2R,7aS)-2-fluorotetrahydro-1H-pyrrolizin-7a(5H)-yl)methoxy)pyrido[4,3-d]pyrimidin-7-yl)-2-methyl-2,3-dihydro-1H-inden-5-ol], the IC50 was determined as 52 nM.

On to `C#Cc1c(F)ccc2cc(O)cc(-c3ccc4c(N5CC(C#N)C5)nc(OC[C@@]56CCCN5C[C@H](F)C6)nc4c3F)c12` [Example 134, 1-(7-(8-ethynyl-7-fluoro-3-hydroxynaphthalen-1-yl)-8-fluoro-2-(((2R, 7aS)-2-fluorotetrahydro-1H-pyrrolizin-7a(5H)-yl)methoxy)quinazolin-4-yl)azetidine-3-carbonitrile], for which the IC50 came to 586 nM.

For the compound `Oc1cc(C2=C(F)c3nc(OC[C@@]45CCCN4C[C@H](F)C5)nc(N4C[C@H]5CC[C@@H](C4)N5)c3C3=NCCN32)c2ccccc2c1` [Example 401, 4-(10-((1R,5S)-3,8-diazabicyclo[3.2.1]octan-3-yl)-6-fluoro-8-(((2R,7aS)-2-fluorotetrahydro-1H-pyrrolizin-7a(5H)-yl)methoxy)-2,3-dihydroimidazo[1′,2′:1,2]pyrido[4,3-d]pyrimidin-5-yl)naphthalen-2-ol], the IC50 was 100 nM.
